Measurements: patent US11267826B2, “Penicillin-binding protein inhibitors” (priority 2017, dated 2022)

Experiments:
[1] = test system: E. coli DH5a harboring NDM-1; experiment: Broth microdilution MIC, engineered E. coli expressing NDM-1; format: cell-based; details: Escherichia coli, read-out: MIC, β-lactamase NDM
Experimental: (§1) To determine the ability of test compounds to potentiate the inhibition of the growth of bacterial strains, classic cell based broth microdilution MIC assays were employed. MIC assays are performed according to CLSI methods except where otherwise noted (CLSI, 2011 and CLSI, 2009). The reference strain S. aureus ATCC 29213 and the hyper-permeable E. coli 901C were used to determine the ability of the PBP compounds to inhibit bacterial growth. Briefly, cryo-preserved bacterial cultures of clinical strains are streaked for isolation on appropriate agar medium, in this case Mueller Hinton II agar. Following incubation to allow formation of colonies these plates are sealed with parafilm and stored refrigerated for up to two weeks. For preparation of assay inocula and to ensure low variability, at least 5 colonies are picked from the agar plates with an inoculating loop and aseptically transferred to a culture tube containing 3 mL of Mueller-Hinton Broth (supplemented with divalent cations to required levels based on Manufacturers' certification). The broth culture is grown for 3-5 hours at 37° C. with shaking at 200 rpm. Meanwhile, 2-fold serial dilutions of test compounds are conducted in a 96 well plate with a final volume of 75 μL per well at 2-fold the final desired concentration. After the dilution plates are set up the growing cultures are then diluted in a cuvette containing MH II broth and the optical density is measured at 600 nm. Inocula are diluted such that 75 μL of this culture in Mueller-Hinton Broth results in a starting bacterial concentration of 5×10^5 CFU/mL when added to the dilution plates. The plates are incubated 16-20 hours at 37° C. The MIC is read visually as the lowest concentration well with no bacterial growth.
(§2) To determine if test compounds were affected by various known β-lactamases, the inhibition of the growth of engineered strains of Escherichia coli harboring select single β-lactamases were tested. […]

[2] = test system: E. coli DH5a harboring CTX-M15; experiment: Broth microdilution MIC, engineered E. coli expressing CTX-M15; format: cell-based; details: Escherichia coli, read-out: MIC, β-lactamase CTXM
Experimental: as §1, §2

[3] = test system: E. coli DH5a harboring OXA-48; experiment: Broth microdilution MIC, engineered E. coli expressing OXA-48; format: cell-based; details: Escherichia coli, read-out: MIC, β-lactamase OXA
Experimental: as §1, §2

[4] = test system: E. coli DH5a harboring IMP-18; experiment: Broth microdilution MIC, engineered E. coli expressing IMP-18; format: cell-based; details: Escherichia coli, read-out: MIC, β-lactamase IMP
Experimental: as §1, §2

[5] = test system: engineered strains of Escherichia coli harboring select single β-lactamases; experiment: MIC across the panel of engineered E. coli strains harboring select single β-lactamases; format: cell-based; details: strains expressing β-lactamases compared with control strain, result in words
Experimental: To determine if test compounds were affected by various known β-lactamases, the inhibition of the growth of engineered strains of Escherichia coli harboring select single β-lactamases were tested. These strains were constructed by cloning the gene encoding the particular β-lactamase into the NdeI and BamHI restriction endonuclease sites of plasmid pLBII, placing the gene(s) under the control of the Lac promoter.

[6] = test system: E. coli DH5a harboring TEM-24; experiment: Broth microdilution MIC, engineered E. coli expressing TEM-24; format: cell-based; details: Escherichia coli, read-out: MIC, β-lactamase TEM
Experimental: as §1, §2

[7] = test system: E. coli DH5a with pLBII plasmid with no β-lactamase gene; experiment: Broth microdilution MIC, engineered E. coli control strain (pLBII plasmid, no β-lactamase gene); format: cell-based; details: Escherichia coli, read-out: MIC, β-lactamase None
Experimental: as §1, §2

[8] = test system: E. coli DH5a harboring VIM-2; experiment: Broth microdilution MIC, engineered E. coli expressing VIM-2; format: cell-based; details: Escherichia coli, read-out: MIC, β-lactamase VIM
Experimental: as §1, §2

[9] = test system: E. coli DH5a harboring SHV-5; experiment: Broth microdilution MIC, engineered E. coli expressing SHV-5; format: cell-based; details: Escherichia coli, read-out: MIC, β-lactamase SHV
Experimental: as §1, §2

E. coli PBP2 = target: T1, E. coli PBP2 (Escherichia coli, UniProt P0AD65); experiment: Bocillin FL competition binding assay, PBP2; set-up: species or system Escherichia coli K12; details: 15 min pre-incubation
T1 construct: 100 μg's of total membrane protein extracts containing PBPs; endogenous in cells; host or cells: Escherichia coli K12, membrane protein fraction
How it was run: (§3)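 E. coli K12 membrane extracts (100 µg protein) pre-incubated 15 min with compound (0.005–2,480 µg/mL) in pH 7 phosphate/350 mM NaCl, then labelled with Bocillin FL 30 min at 35°C; SDS-PAGE fluorescence (ex 450/em 520 nm), μg/mL reported. PBP1a/1b unresolved, reported combined.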

[10] = test system: E. coli DH5a harboring KPC-2; experiment: microbe, parasite or virus in culture; format: cell-based; details: Escherichia coli, read-out: MIC, β-lactamase KPC
Experimental: To determine the ability of test compounds to potentiate the inhibition of the growth of bacterial strains, classic cell based broth microdilution MIC assays were employed. MIC assays are performed according to CLSI methods except where otherwise noted (CLSI, 2011 and CLSI, 2009). The reference strain S. aureus ATCC 29213 and the hyper-permeable E. coli 901C were used to determine the ability of the PBP compounds to inhibit bacterial growth. Briefly, cryo-preserved bacterial cultures of clinical strains are streaked for isolation on appropriate agar medium, in this case Mueller Hinton II agar. Following incubation to allow formation of colonies these plates are sealed with parafilm and stored refrigerated for up to two weeks. For preparation of assay inocula and to ensure low variability, at least 5 colonies are picked from the agar plates with an inoculating loop and aseptically transferred to a culture tube containing 3 mL of Mueller-Hinton Broth (supplemented with divalent cations to required levels based on Manufacturers' certification). The broth culture is grown for 3-5 hours at 37° C. with shaking at 200 rpm. […] After the dilution plates are set up the growing cultures are then diluted in a cuvette containing MH II broth and the optical density is measured at 600 nm. […] The MIC is read visually as the lowest concentration well with no bacterial growth. […]

S. aureus ATCC 29213 = experiment: Broth microdilution MIC assay, S. aureus; format: cell-based; details: Staphylococcus aureus, ATCC29213; broth microdilution, 16-20 hours at 37° C.; read-out: S. aureus 29213 MIC
How it was run: (§4)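 Per CLSI: log-phase cultures (3-5 h, 37° C) seeded at 5×10^5 CFU/mL into cation-supplemented Mueller-Hinton broth containing 2-fold compound dilutions. After 16-20 h at 37° C, MIC taken visually as lowest growth-free well, for S. aureus ATCC 29213 and E. coli 901C.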

E. coli K12 PBP1a/b = experiment: Bocillin FL competition binding assay, PBP1a/1b combined; set-up: species or system Escherichia coli K12; details: 15 min pre-incubation, PBP 1a/1b combined
How it was run: as §3

E. coli PBP3 = target: T2, E. coli PBP3 (Escherichia coli, UniProt P0AD68); experiment: Bocillin FL competition binding assay, PBP3; set-up: species or system Escherichia coli K12; details: 15 min pre-incubation
T2 construct: 100 μg's of total membrane protein extracts containing PBPs; endogenous in cells; host or cells: Escherichia coli K12, membrane protein fraction
How it was run: as §3

[11] = test system: hyper-permeable E. coli 901C; experiment: Broth microdilution MIC assay, hyper-permeable E. coli; format: cell-based; details: Escherichia coli, read-out: E. coli 901C MIC
How it was run: as §4

T2 sequence (P0AD68 1-577): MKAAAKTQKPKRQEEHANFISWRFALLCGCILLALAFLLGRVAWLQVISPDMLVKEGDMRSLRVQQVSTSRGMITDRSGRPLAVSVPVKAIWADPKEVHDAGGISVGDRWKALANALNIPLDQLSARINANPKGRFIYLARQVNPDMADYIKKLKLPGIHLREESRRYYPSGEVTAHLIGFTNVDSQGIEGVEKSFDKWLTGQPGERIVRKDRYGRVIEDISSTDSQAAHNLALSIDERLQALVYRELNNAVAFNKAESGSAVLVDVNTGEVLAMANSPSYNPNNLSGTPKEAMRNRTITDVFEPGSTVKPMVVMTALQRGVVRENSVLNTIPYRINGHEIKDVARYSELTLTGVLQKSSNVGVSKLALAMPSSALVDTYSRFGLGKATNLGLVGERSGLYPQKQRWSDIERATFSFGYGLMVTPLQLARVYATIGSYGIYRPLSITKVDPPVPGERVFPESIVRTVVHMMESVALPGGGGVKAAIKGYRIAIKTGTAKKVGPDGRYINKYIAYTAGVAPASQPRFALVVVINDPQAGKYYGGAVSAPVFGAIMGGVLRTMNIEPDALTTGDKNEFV
T1 sequence (P0AD65 whole entry): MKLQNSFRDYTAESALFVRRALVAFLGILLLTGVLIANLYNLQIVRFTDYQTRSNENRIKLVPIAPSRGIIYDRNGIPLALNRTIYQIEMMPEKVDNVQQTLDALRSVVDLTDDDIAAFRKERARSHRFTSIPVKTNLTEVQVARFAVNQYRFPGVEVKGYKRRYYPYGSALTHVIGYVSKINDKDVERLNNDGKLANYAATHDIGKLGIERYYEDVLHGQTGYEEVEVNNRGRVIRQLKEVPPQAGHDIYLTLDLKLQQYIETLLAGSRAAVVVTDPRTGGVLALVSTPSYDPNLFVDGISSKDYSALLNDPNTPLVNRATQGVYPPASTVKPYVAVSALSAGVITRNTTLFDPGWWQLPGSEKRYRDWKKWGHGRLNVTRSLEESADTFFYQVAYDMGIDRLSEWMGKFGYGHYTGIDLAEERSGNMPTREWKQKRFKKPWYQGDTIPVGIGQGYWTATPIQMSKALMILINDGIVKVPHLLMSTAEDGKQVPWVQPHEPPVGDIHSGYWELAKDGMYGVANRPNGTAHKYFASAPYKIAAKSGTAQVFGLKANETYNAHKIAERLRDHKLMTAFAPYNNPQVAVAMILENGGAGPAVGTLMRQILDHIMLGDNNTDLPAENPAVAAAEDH

| Structure (SMILES) | MIC [1] [µg/mL] | MIC [2] [µg/mL] | MIC [3] [µg/mL] | MIC [4] [µg/mL] | Effect of expressed β-lactamase on MIC [5] | MIC [6] [µg/mL] | MIC [7] [µg/mL] | MIC [8] [µg/mL] | MIC [9] [µg/mL] | E. coli PBP2 Potency (E. coli PBP2) | MIC [10] [µg/mL] | MIC (S. aureus ATCC 29213) [µg/mL] | E. coli K12 PBP1a/b Potency (E. coli K12 PBP1a/b) | E. coli PBP3 Potency (E. coli PBP3) | MIC [11] [µg/mL] |
| --- | --- | --- | --- | --- | --- | --- | --- | --- | --- | --- | --- | --- | --- | --- | --- |
| C[C@H]1[C@H](NC(=O)/C(=N\OC(C)(C)C(=O)O)c2csc(N)n2)C(=O)N1S(=O)(=O)O [Aztreonam, reference compound] | 0.06 | 32 | 0.125 | 0.06 | weaker MICs in those strains | 1 | 0.06 | 0.06 | 8 |  |  |  |  |  |  |
| CO/N=C(\C(=O)N[C@H]1Cc2cccc(C(=O)O)c2OB1O)c1csc(N)n1 [Example 1, (R,Z)-3-(2-(2-aminothiazol-4-yl)-2-(methoxyimino)acetamido)-2-hydroxy-3,4-dihydro-2H-benzo[e][1,2]oxaborinine-8-carboxylic Acid] | 8 | 8 | 8 | 8 | the same MIC values in strains regardless of the β-lactamase expressed | 8 | 8 | 8 | 8 | A (A represents a potency of >1000 μg/mL) | 4 | 64 to 128 | C (C represents a potency of <64 μg/mL) | C (C represents a potency of <64 μg/mL) | < 64 |
